{"source": "patent US20050192264A1", "about": "“Slow release steroid composition” (priority 2004, published 2005)", "key": {"[1]": {"assay": "Flow-through dissolution of TA samples in 20% methanol in water", "format": "physicochemical", "conditions": "solvent solution 20% methanol in water", "procedure": "Samples were prepared by dispensing 10 mg of sample into 10 mL of a balanced salt solution comprising 1% Tween 80. The sample in solution was then subjected to vigorous shaking and a number of rapid expulsions through a 22 gauge needle. 2 mL of this suspension was then filtered through a […] Durapore membrane filter which retained essentially all of the particles. The filter is then rinsed with 2 mL water.\nThis method of sample preparation avoids the problem of particles formed of large agglomerations of crystals which appear to dissolve as large crystals and therefore bias results.\nDissolution was performed using a flow through system that pumps a degassed solvent solution of 20% methanol in water through the dissolution chamber at around 11 mL per minute. […] The combination of flow rate and solvent solution dissolves the TA crystals at a rate that enables a flow-through cell to record absorbance values in the acceptable range for virtually all of the 30 minute run time and for the experiment to be completed in a reasonable period. […]\nApproximately 2 mg of sample was prepared on a filter as outlined above. […] The absorbance was recorded on a chart recorder with 2 absorbance units causing 100% pen deflection.\nDissolution studies were carried out for a period of 30 minutes with a flow rate of 11 mL per minute. Average absorbance values over 2 minute periods were calculated. […]"}, "[2]": {"assay": "Equilibrium solubility of triamcinolone acetonide in various media (HPLC)", "format": "physicochemical", "conditions": "thermodynamic from solid, read-out: Triamcinolone acetonide conc. (equilibrium solubility)", "source_text": "An HPLC assay method was developed for TA. This was used to determine the equilibrium solubility for TA in various media. It was considered that a solution of acetonitrile may be advantageous for the maintenance of sink conditions, wherein a large surplus of solvent/absorbant/carrier capacity is maintained."}, "[3]": {"assay": "Saline saturated with TA (filter validation stock)", "format": "physicochemical", "procedure": "Solutions at 1% and 10% of saturation were prepared from a stock of saline saturated with TA (15 μg/mL). The solutions were filtered through a syringe filter and aliquots (200 μL) of the filtrate were collected. […] Consequently, an 800 μL prefiltration volume (see dissolution method above) was assumed sufficient to ensure that the filtrate concentration was representative of the dissolved TA concentration in the dissolution vessel."}, "[4]": {"conditions": "cited from earlier work"}, "[5]": {"system": "clinically significant macular edema", "conditions": "intravitreal injection of the usual dose (4 mg); cited from earlier work"}}, "note": "Where two headings read alike, the source gives them in different places."}
{"smiles": "CC1(C)O[C@@H]2CC3C4CCC5=CC(=O)C=CC5(C)[C@@]4(F)C(O)CC3(C)C2(C(=O)CO)O1", "note": "(stereo partly shown) [triamcinolone acetonide, 9-fluoro-11,21-dihydroxy-16,17-[1-methylethylidinebis(oxy)]pregna-1,4-diene-3,20-dione]", "values": [{"measurement": "solubility of TA in the solvent solution relative to TA in water alone", "setting": "[1]", "result": "2-3 times"}, {"measurement": "solubility thermodynamic", "setting": "[2]; 5% Acetonide, aqueous with cosolvent or surfactant or cyclodextrin", "result": 5.2, "unit": "µg/mL"}, {"measurement": "solubility thermodynamic", "setting": "[2]; 10% Acetonide, aqueous with cosolvent or surfactant or cyclodextrin", "result": 9.1, "unit": "µg/mL"}, {"measurement": "solubility thermodynamic", "setting": "[2]; 30% Acetonide, aqueous with cosolvent or surfactant or cyclodextrin", "result": 128, "unit": "µg/mL"}, {"measurement": "solubility thermodynamic", "setting": "[2]; distilled water, water", "result": 8.8, "unit": "µg/mL"}, {"measurement": "solubility thermodynamic", "setting": "[2]; normal saline, saline or isotonic", "result": 8.2, "unit": "µg/mL"}, {"measurement": "concentration of saline saturated with TA", "setting": "[3]", "result": 15000, "unit": "ng/mL"}, {"measurement": "persistence at measurable concentrations in the vitreous humour", "setting": "[4]; patients who have not undergone vitrectomy, assuming five half-lives", "result": "93 ± 28", "unit": "days"}, {"measurement": "mean elimination half-life", "setting": "[4]; single intravitreal injection, nonvitrectomized patients", "result": 18.6, "unit": "days"}, {"measurement": "time after which beneficial effects are diminished", "setting": "[5]", "result": "approximately three"}]}
